Calls of active or inactive are those of the source. The rule behind the calls is not given here.
Key:
[1] = Selectivity Index, ratio of CC50 for human A549 cells to IC50 for Human adenovirus 5 infected in HEK293beta5 cells coexpressing GFP; assay type: toxicity, cell-based; details: read-out: Ratio CC50/IC50
[2] = tested on: Human adenovirus 5; assay: Antiviral activity against Human adenovirus 5 infected in HEK293beta5 cells coexpressing GFP assessed as inhibition of plaque formation incubated for 7 days; assay type: functional, organism-based; details: Human mastadenovirus C, 168 h
[3] = Cytotoxicity against human A549 cells assessed as reduction in cell viability incubated for 48 hrs by alamarBlue assay; assay type: cell-based
[4] = tested on: Human betaherpesvirus 5; assay: Antiviral activity against Human cytomegalovirus infected in MRC5 cells assessed as decrease in viral DNA copies at 50 uM incubated for 72 hrs by qRT-PCR analysis; assay type: functional, organism-based
[5] = tested on: Human adenovirus 5; assay: Antiviral activity against Human adenovirus 5 infected in HEK293beta5 cells coexpressing GFP assessed as inhibition of plaque formation at 10 uM incubated for 7 days relative to control; assay type: functional; details: Human mastadenovirus C, 168 h
[6] = tested on: Human adenovirus 5; assay: Antiviral activity against Human adenovirus 5 infected in A549 cells assessed as fold reduction in virus yield at 50 uM incubated for 48 hrs by endpoint dilution method relative to control; assay type: functional
[7] = tested on: Human adenovirus 5; assay: Antiviral activity against Human adenovirus 5 infected in A549 cells assessed as nuclear associated viral DNA copies at 50 uM incubated for 45 mins by qRT-PCR analysis; assay type: functional, organism-based
[8] = tested on: Human adenovirus 5; assay: Antiviral activity against Human adenovirus 5 infected in A549 cells assessed as decrease in […] cDNA copies at 50 uM incubated for 24 hrs by qRT-PCR analysis; assay type: functional, organism-based
[9] = Stability in Syrian hamster serum assessed as parent compound remaining at 1 uM measured after 15 mins by LC-MS/MS analysis; assay type: ADME, cell-free, Mesocricetus auratus; details: read-out: Stability
[10] = Stability in Syrian hamster serum assessed as parent compound remaining at 1 uM measured after 30 mins by LC-MS/MS analysis; assay type: ADME, cell-free, Mesocricetus auratus; details: read-out: Stability
[11] = Stability in Syrian hamster serum assessed as parent compound remaining at 1 uM measured after 60 mins by LC-MS/MS analysis; assay type: ADME, cell-free, Mesocricetus auratus; details: read-out: Stability
[12] = Stability in Syrian hamster serum assessed as parent compound remaining at 1 uM measured after 120 mins by LC-MS/MS analysis; assay type: ADME, cell-free, Mesocricetus auratus; details: read-out: Stability
[13] = Stability in Syrian hamster serum assessed as parent compound remaining at 1 uM measured immediately by LC-MS/MS analysis; assay type: ADME, cell-free, Mesocricetus auratus; details: read-out: Stability

Row | SMILES | selectivity ratio [1] | CC50 at 48 h [3] | inhibition at 10 µM [5] | fold change (FC) [6] | other results
1 | CC(C)(C)OC(=O)N1CCN(C(=O)Nc2cc(C(F)(F)F)ccc2Cl)CC1 | 87 | 200 µM | 95% | 18.7 | IC50 [2]: 2.3 µM; Activity [4]: Active; Activity [7]: Active
2 | Cc1ccc(NC(=S)N2CCN(C(=O)Cc3ccccc3)CC2C)cc1 (configuration not stated) | – | 200 µM | 92.9% | – | –
3 | CC1CN(C(=O)Cc2ccccc2)CCN1C(=S)Nc1ccc(C#N)cc1 (configuration not stated) | 38 | 175 µM | 98.4% | 18.4 | IC50 [2]: 4.6 µM; Activity [4]: Active; Activity [7]: Active; Activity [8]: inactive
4 | CC1CN(C(=O)CC2CCCCC2)CCN1C(=S)Nc1ccc(Cl)cc1 (configuration not stated) | – | 200 µM | 89.3% | – | –
5 | CC1CN(C(=O)c2cc3ccccc3o2)CC(C)N1C(=O)Nc1ccc(Cl)cc1 (configuration not stated) | – | 113 µM | 81.1% | – | –
6 | CC1CN(C(=O)Cc2ccccc2)CCN1C(=S)Nc1ccc(Cl)cc1 (configuration not stated) | – | 175 µM | 84.6% | – | –
7 | O=C(Nc1cc(C(F)(F)F)ccc1Cl)N1CCN(C(=O)Nc2cc(C(F)(F)F)ccc2Cl)C(c2ccccc2)C1 (configuration not stated) | – | 200 µM | 90.4% | – | –
8 | Nc1ccn(C[C@@H](CO)OCP(=O)(O)O)c(=O)n1.O.O [CIDOFOVIR] | – | 50.6 µM | 3.51% | 82.5 | IC50 [2]: 24.1 µM
9 | CC1CN(C(=O)OC(C)(C)C)CCN1C(=S)Nc1ccc(C#N)cc1 (configuration not stated) | – | 175 µM | 88.9% | – | –
10 | O=C(Cc1ccccc1)N1CCN(C(=S)Nc2cc(C(F)(F)F)cc(C(F)(F)F)c2)C(c2ccccc2)C1 (configuration not stated) | 149 | 104 µM | 100% | 1690 | IC50 [2]: 0.7 µM; remaining at 0.25 h, 1 µM [9]: 97.2%; remaining at 0.5 h, 1 µM [10]: 110%; Activity [7]: Active; remaining at 1 h, 1 µM [11]: 90.5%; remaining at 2 h, 1 µM [12]: 100%; remaining at 0 min, 1 µM [13]: 100%
11 | CC(C)(C)CC(=O)N1CCN(C(=O)Nc2ccc([N+](=O)[O-])cc2)C(c2ccccc2)C1 (configuration not stated) | – | 72 µM | 74.4% | – | –
12 | CC1CN(C(=O)CC2CCCCC2)CCN1C(=S)Nc1ccc(C(F)(F)F)cc1 (configuration not stated) | – | 142 µM | 88.9% | – | –
13 | N#Cc1ccc(NC(=S)N2CCN(C(=O)CC3CCCCC3)CC2c2ccccc2)cc1 (configuration not stated) | – | 65.3 µM | 80% | – | –
14 | COc1ccc(NC(=S)N2CCN(C(=O)Cc3ccccc3)CC2C)cc1 (configuration not stated) | – | 175 µM | 88.9% | – | –
15 | CC1CN(C(=O)c2cc3ccccc3o2)CCN1C(=S)Nc1ccc(C#N)cc1 (configuration not stated) | – | 25.5 µM | 100% | – | –
16 | CC1CN(C(=O)CC2CCCCC2)CCN1C(=S)Nc1ccc([N+](=O)[O-])cc1 (configuration not stated) | – | 148 µM | 82.6% | – | –
17 | CC(C)(C)CC(=O)N1CCN(C(=S)Nc2cc(C(F)(F)F)cc(C(F)(F)F)c2)C(c2ccccc2)C1 (configuration not stated) | – | 91.8 µM | 100% | – | –
18 | O=C(Cc1ccccc1)N1CCN(C(=O)Nc2cc(C(F)(F)F)ccc2Cl)C(c2ccccc2)C1 (configuration not stated) | – | 64.5 µM | 100% | – | –
19 | O=C(c1cc2ccccc2o1)N1CCN(C(=O)Nc2ccc([N+](=O)[O-])cc2)C(c2ccccc2)C1 (configuration not stated) | 93.5 | – | 100% | – | –

Row | SMILES | selectivity ratio [1] | CC50 at 48 h [3] | inhibition at 10 µM [5] | fold change (FC) [6] | other results
20 | CC(C)(C)OC(=O)N1CCN(C(=O)Nc2ccc([N+](=O)[O-])cc2)CC1 | 43.7 | 118 µM | 91.5% | 21.2 | IC50 [2]: 2.7 µM; Activity [4]: Active; Activity [7]: Active; Activity [8]: inactive
21 | CC1CN(C(=O)CC2CCCCC2)CCN1C(=S)Nc1ccc(F)cc1 (configuration not stated) | 238 | 143 µM | 100% | 30.5 | IC50 [2]: 0.6 µM; remaining at 0.25 h, 1 µM [9]: 117%; remaining at 0.5 h, 1 µM [10]: 96.4%; Activity [7]: Active; remaining at 1 h, 1 µM [11]: 85%; remaining at 2 h, 1 µM [12]: 67.3%; remaining at 0 min, 1 µM [13]: 100%
22 | CC1CN(C(=O)Cc2ccccc2)CCN1C(=S)Nc1ccc(F)cc1 (configuration not stated) | – | 26.3 µM | 100% | – | –
23 | O=C(c1cc2ccccc2o1)N1CCN(C(=O)Nc2ccccc2[N+](=O)[O-])C(c2ccccc2)C1 (configuration not stated) | 79 | – | 100% | 9.9 | –
24 | CC(C)(C)CC(=O)N1CCN(C(=O)Nc2ccccc2[N+](=O)[O-])C(c2ccccc2)C1 (configuration not stated) | – | 63.3 µM | 100% | – | –
25 | N#Cc1ccc(NC(=O)N2CCN(C(=O)c3cc4ccccc4o3)CC2c2ccccc2)cc1 (configuration not stated) | 53.3 | – | – | 34.5 | –
26 | O=C(c1cc2ccccc2o1)N1CCN(C(=O)Nc2cc(C(F)(F)F)ccc2Cl)C(c2ccccc2)C1 (configuration not stated) | 116 | – | – | – | –
27 | CC(C)(C)OC(=O)N1CCN(C(=O)Nc2ccc([N+](=O)[O-])cc2)C(c2ccccc2)C1 (configuration not stated) | 47.3 | – | – | – | –
28 | Cc1ccc(NC(=S)N2CCN(C(=O)CC3CCCCC3)CC2C)cc1 (configuration not stated) | 58.2 | 122 µM | 95.8% | 39.1 | IC50 [2]: 2.1 µM; Activity [4]: Active; Activity [7]: Active; Activity [8]: inactive
29 | O=C(Cc1ccccc1)N1CCN(C(=O)Nc2ccccc2[N+](=O)[O-])C(c2ccccc2)C1 (configuration not stated) | 57.4 | 120 µM | 96.9% | 32.9 | IC50 [2]: 2.1 µM; Activity [4]: Active; Activity [7]: Active
30 | O=C(Cc1ccccc1)N1CCN(C(=O)Nc2ccc([N+](=O)[O-])cc2)C(c2ccccc2)C1 (configuration not stated) | – | 174 µM | 82.6% | – | –
31 | CC1CN(C(=O)CC2CCCCC2)CCN1C(=S)Nc1cc(C(F)(F)F)cc(C(F)(F)F)c1 (configuration not stated) | – | 82.4 µM | 100% | – | –
32 | O=C(CC1CCCCC1)N1CCN(C(=O)Nc2ccc([N+](=O)[O-])cc2)C(c2ccccc2)C1 (configuration not stated) | – | 71.8 µM | 98.9% | – | –
33 | CC1CN(C(=O)c2cc3ccccc3o2)CCN1C(=S)Nc1ccc([N+](=O)[O-])cc1 (configuration not stated) | – | 20 µM | 100% | – | –
34 | CC1CN(C(=O)c2cc3ccccc3o2)CCN1C(=S)Nc1ccc(F)cc1 (configuration not stated) | – | 75.4 µM | 85% | – | –
35 | CC1CN(C(=O)CC2CCCCC2)CCN1C(=S)Nc1ccc(C#N)cc1 (configuration not stated) | 77.2 | 193 µM | 100% | 9.3 | IC50 [2]: 2.5 µM; Activity [7]: Active
36 | O=C(CC1CCCCC1)N1CCN(C(=O)Nc2ccccc2[N+](=O)[O-])C(c2ccccc2)C1 (configuration not stated) | 80.1 | 112 µM | 100% | 15.2 | IC50 [2]: 1.4 µM; Activity [4]: Active; Activity [7]: Active
37 | O=C(c1cc2ccccc2o1)N1CCN(C(=O)Nc2ccc(Cl)cc2)C(c2ccccc2)C1 (configuration not stated) | 42.7 | – | – | 16.9 | –
38 | CC1CN(C(=O)c2cc3ccccc3o2)CCN1C(=S)Nc1ccc(C(F)(F)F)cc1 (configuration not stated) | – | 46.3 µM | 100% | – | –

— ChEMBL document CHEMBL4312024, “Optimization of piperazine-derived ureas privileged structures for effective antiadenovirus agents” (Eur J Med Chem, 2020)
